Data set [1] has as its system LRRK2 Ser935 phosphorylation. The experiment in a line: TR-FRET cellular assay for LRRK2 Ser935 phosphorylation (cell background not given). To be noted: result in words. The data set is classed as cell-based, human. The method, then: Transduced cells in the 384-well assay plate were incubated with indicated inhibitors (5X, 5 µL/well) for 60 to 90 minutes. During this time, 6 X lysis buffer (Life Technologies) was supplemented with 30 nM Tb-labeled anti-LRRK2 pSer935 antibody and both protease and phosphatase inhibitor cocktails (Sigma). The complete 6 X lysis buffer was added to each well (5 µL/well) and the plates were incubated at room temperature in the dark for 2 hours. The plate was then read on an EnVision® multilabel plate reader (PerkinElmer, Waltham, MA) with excitation at 340 nm and emission 520 nm and 495 nm. […]. A sigmoidal dose-response equation with varying slope was used to fit the data and generate IC50 values. […]. The IC50 values reported in Table 1 are the averaged numbers from three independent experiments.
(TR-FRET usually uses a lanthanide donor and a delayed reading to cut background.)

In data set [2] the target is T1, LRRK2 wild-type (Homo sapiens, UniProt Q5S007). The experiment in a line: TR-FRET cellular assay for LRRK2 Ser935 phosphorylation, U-2 OS cells, BacMam LRRK2-GFP wild-type. The format is cell-based. Also on record: This high-throughput assay utilizes cells expressing full-length human LRRK2 with a C-terminal GFP tag (LRRK2-GFP); host or cells: U-2 OS cells transduced with BacMam. To be noted: WT, +/- SD, three independent experiments, * = partial inhibition, read-out: IC50, TR-FRET cell-based assay for Ser935 phosphorylation of LRRK2. The method, then:
(§1) U-2 OS cells are maintained in growth medium (McCoy’s 5A supplemented with 10% dialyzed FBS (dFBS), 10 mM HEPES, 0.1 mM NEAA, 1 mM Sodium Pyruvate, and 100 U/mL Penicillin/100 µg/mL Streptomycin). HEK293T cells are maintained in DMEM with 10% dFBS, 10 mM HEPES, 0.1 mM NEAA and 100 U/mL Penicillin/100 µg/mL Streptomycin. SH-SY5Y cells are maintained in DMEM/F-12 medium supplemented with 10% dFBS and 100 U/mL Penicillin/100 µg/mL Streptomycin. […] GIBCO® human neural stem cells (hNSCs) were propagated as an adherent culture in StemPro® NSC SFM according to the manufacturer’s recommended protocol (Life Technologies). For BacMam transduction of U-2 OS and HEK293T, cells were harvested, mixed with various amounts of BacMam LRRK2-GFP reagent (v/v) and plated onto 6-well plates. […] Cells were assayed in 384-well format (∼20,000 cells/well) 48 hours post-transduction as above.
(§2) Transduced cells in the 384-well assay plate were incubated with indicated inhibitors (5X, 5 µL/well) for 60 to 90 minutes. During this time, 6 X lysis buffer (Life Technologies) was supplemented with 30 nM Tb-labeled anti-LRRK2 pSer935 antibody and both protease and phosphatase inhibitor cocktails (Sigma). The complete 6 X lysis buffer was added to each well (5 µL/well) and the plates were incubated at room temperature in the dark for 2 hours. […] A sigmoidal dose-response equation with varying slope was used to fit the data and generate IC50 values. Z′-factor values were calculated as: Z′-factor = 1 - [(3 × stdevno virus +3 × stdevmaxvirus)/(avgmaxvirus – avgno-virus)]. The IC50 values reported in Table 1 are the averaged numbers from three independent experiments.

Data set [3] deals with T1, LRRK2 wild-type. Nature of the data set: TR-FRET cellular assay for LRRK2 Ser935 phosphorylation, SH-SY5Y cells, BacMam LRRK2-GFP wild-type. The format is cell-based. On the set-up: This high-throughput assay utilizes cells expressing full-length human LRRK2 with a C-terminal GFP tag (LRRK2-GFP); host or cells: SH-SY5Y cells transduced with BacMam. As to conditions: WT, +/- SD, three independent experiments, * = partial inhibition, read-out: IC50, TR-FRET cell-based assay for Ser935 phosphorylation of LRRK2. How it is done: as §1, §2

The target of data set [4] is T2, LRRK2 G2019S (Homo sapiens, UniProt Q5S007, G2019S). Nature of the data set: TR-FRET cellular assay for LRRK2 Ser935 phosphorylation, SH-SY5Y cells, BacMam LRRK2-GFP G2019S (incl. Tocriscreen Mini library screen and follow-up). As to conditions: for IC50: three independent experiments; for inhibition at 20 µM: read-out: %Inhibition Initial screen; for Cellular TR-FRET Assay Max % Inhibition: 90 min. The format is cell-based. Also on record: This high-throughput assay utilizes cells expressing full-length human LRRK2 with a C-terminal GFP tag (LRRK2-GFP); host or cells: SH-SY5Y cells transduced with BacMam. How it is done:
as §1, §2
40 nL of 10 mM Tocris library compounds in DMSO were dispensed into each well of the assay plate by the ECHO system. Equal volumes of DMSO were dispensed into the control wells. Cells were incubated with compounds for 90 to 120 min prior to cell lysis and detection as described above. The percent inhibition is calculated as: [(average emission ratios of DMSO control wells – average emission ratios of compound wells)/(average emission ratios of DMSO control wells – average emission ratios of LRRK2-IN-1 treated wells)] * 100. For the dose-response follow-up studies, fresh compound DMSO stock solutions were prepared from powder. […] Z′-factor value was calculated as: Z′-factor = 1 - [(3 × stdevLRRK2-IN-1+3 × stdevDMSO)/(avgDMSO – avgLRRK2-IN-1)]. The IC50 values reported in Table 2 are the averaged numbers from three independent experiments for both cellular and biochemical TR-FRET assays and one representative result of two independent experiments for the cytotoxicity assay.

For data set [5], the target named is T2, LRRK2 G2019S. Nature of the data set: TR-FRET cellular assay for LRRK2 Ser935 phosphorylation, U-2 OS cells, BacMam LRRK2-GFP G2019S. The data set is classed as cell-based. Also on record: This high-throughput assay utilizes cells expressing full-length human LRRK2 with a C-terminal GFP tag (LRRK2-GFP); host or cells: U-2 OS, SH-SY5Y, HEK293T cells or human neural stem cells transduced with BacMam. As to conditions: G2019S, +/- SD, three independent experiments, * = partial inhibition, read-out: IC50, TR-FRET cell-based assay for Ser935 phosphorylation of LRRK2. The method, then:
as §1, §2

Data set [6] addresses T2, LRRK2 G2019S. Nature of the data set: In vitro biochemical LRRK2 TR-FRET activity assay. As to conditions: for IC50: LRRK2 G2019S, ATP 134 µM (Km,app), LRRKtide substrate, three independent experiments, read-out: Biochemical LRRK2 assay IC50 +/- SD. How it is done:
The Biochemical LRRK2 TR-FRET activity assay was performed according to the manufacture recommended assay protocol (Life Technologies). […] After incubation at room temperature for 1 hour, the kinase reactions were stopped by addition of 10 µL of 20 mM EDTA and 4 nM Tb-anti-pERM (pLRRKtide) antibody in TR-FRET dilution buffer (Life Technologies). After a 30 minute incubation at room temperature, TR-FRET measurements were obtained on a BMG PHERAstar plate reader using LanthaScreen® filters and settings. A 16 point, 2-fold dilution series of each compound was tested in triplicate at each concentration and assays were also performed in triplicate.

A short description of a further data set: in vitro. As to conditions: human.
The target in data set [7] is T1, LRRK2 wild-type. Nature of the data set: TR-FRET cellular assay for LRRK2 Ser935 phosphorylation, HEK293T cells, BacMam LRRK2-GFP wild-type. To be noted: WT, +/- SD, three independent experiments, * = partial inhibition, read-out: IC50, TR-FRET cell-based assay for Ser935 phosphorylation of LRRK2. Also on record: This high-throughput assay utilizes cells expressing full-length human LRRK2 with a C-terminal GFP tag (LRRK2-GFP); host or cells: HEK293T cells transduced with BacMam. How it is done: as §1, §2

Data set [8] has as its target T2, LRRK2 G2019S. Nature of the data set: TR-FRET cellular assay for LRRK2 Ser935 phosphorylation, HEK293T cells, BacMam LRRK2-GFP G2019S. Also on record: This high-throughput assay utilizes cells expressing full-length human LRRK2 with a C-terminal GFP tag (LRRK2-GFP); host or cells: HEK293T cells transduced with BacMam. To be noted: +/- SD, three independent experiments, * = partial inhibition, read-out: IC50, TR-FRET cell-based assay for Ser935 phosphorylation of LRRK2. How it is done: as §1, §2

A further data set deals with T3, GFP-LRRK2 G2019S (Homo sapiens, UniProt Q5S007, G2019S).
T3 construct: expressed in transfected cells
T3 sequence (Q5S007 whole entry G2019S): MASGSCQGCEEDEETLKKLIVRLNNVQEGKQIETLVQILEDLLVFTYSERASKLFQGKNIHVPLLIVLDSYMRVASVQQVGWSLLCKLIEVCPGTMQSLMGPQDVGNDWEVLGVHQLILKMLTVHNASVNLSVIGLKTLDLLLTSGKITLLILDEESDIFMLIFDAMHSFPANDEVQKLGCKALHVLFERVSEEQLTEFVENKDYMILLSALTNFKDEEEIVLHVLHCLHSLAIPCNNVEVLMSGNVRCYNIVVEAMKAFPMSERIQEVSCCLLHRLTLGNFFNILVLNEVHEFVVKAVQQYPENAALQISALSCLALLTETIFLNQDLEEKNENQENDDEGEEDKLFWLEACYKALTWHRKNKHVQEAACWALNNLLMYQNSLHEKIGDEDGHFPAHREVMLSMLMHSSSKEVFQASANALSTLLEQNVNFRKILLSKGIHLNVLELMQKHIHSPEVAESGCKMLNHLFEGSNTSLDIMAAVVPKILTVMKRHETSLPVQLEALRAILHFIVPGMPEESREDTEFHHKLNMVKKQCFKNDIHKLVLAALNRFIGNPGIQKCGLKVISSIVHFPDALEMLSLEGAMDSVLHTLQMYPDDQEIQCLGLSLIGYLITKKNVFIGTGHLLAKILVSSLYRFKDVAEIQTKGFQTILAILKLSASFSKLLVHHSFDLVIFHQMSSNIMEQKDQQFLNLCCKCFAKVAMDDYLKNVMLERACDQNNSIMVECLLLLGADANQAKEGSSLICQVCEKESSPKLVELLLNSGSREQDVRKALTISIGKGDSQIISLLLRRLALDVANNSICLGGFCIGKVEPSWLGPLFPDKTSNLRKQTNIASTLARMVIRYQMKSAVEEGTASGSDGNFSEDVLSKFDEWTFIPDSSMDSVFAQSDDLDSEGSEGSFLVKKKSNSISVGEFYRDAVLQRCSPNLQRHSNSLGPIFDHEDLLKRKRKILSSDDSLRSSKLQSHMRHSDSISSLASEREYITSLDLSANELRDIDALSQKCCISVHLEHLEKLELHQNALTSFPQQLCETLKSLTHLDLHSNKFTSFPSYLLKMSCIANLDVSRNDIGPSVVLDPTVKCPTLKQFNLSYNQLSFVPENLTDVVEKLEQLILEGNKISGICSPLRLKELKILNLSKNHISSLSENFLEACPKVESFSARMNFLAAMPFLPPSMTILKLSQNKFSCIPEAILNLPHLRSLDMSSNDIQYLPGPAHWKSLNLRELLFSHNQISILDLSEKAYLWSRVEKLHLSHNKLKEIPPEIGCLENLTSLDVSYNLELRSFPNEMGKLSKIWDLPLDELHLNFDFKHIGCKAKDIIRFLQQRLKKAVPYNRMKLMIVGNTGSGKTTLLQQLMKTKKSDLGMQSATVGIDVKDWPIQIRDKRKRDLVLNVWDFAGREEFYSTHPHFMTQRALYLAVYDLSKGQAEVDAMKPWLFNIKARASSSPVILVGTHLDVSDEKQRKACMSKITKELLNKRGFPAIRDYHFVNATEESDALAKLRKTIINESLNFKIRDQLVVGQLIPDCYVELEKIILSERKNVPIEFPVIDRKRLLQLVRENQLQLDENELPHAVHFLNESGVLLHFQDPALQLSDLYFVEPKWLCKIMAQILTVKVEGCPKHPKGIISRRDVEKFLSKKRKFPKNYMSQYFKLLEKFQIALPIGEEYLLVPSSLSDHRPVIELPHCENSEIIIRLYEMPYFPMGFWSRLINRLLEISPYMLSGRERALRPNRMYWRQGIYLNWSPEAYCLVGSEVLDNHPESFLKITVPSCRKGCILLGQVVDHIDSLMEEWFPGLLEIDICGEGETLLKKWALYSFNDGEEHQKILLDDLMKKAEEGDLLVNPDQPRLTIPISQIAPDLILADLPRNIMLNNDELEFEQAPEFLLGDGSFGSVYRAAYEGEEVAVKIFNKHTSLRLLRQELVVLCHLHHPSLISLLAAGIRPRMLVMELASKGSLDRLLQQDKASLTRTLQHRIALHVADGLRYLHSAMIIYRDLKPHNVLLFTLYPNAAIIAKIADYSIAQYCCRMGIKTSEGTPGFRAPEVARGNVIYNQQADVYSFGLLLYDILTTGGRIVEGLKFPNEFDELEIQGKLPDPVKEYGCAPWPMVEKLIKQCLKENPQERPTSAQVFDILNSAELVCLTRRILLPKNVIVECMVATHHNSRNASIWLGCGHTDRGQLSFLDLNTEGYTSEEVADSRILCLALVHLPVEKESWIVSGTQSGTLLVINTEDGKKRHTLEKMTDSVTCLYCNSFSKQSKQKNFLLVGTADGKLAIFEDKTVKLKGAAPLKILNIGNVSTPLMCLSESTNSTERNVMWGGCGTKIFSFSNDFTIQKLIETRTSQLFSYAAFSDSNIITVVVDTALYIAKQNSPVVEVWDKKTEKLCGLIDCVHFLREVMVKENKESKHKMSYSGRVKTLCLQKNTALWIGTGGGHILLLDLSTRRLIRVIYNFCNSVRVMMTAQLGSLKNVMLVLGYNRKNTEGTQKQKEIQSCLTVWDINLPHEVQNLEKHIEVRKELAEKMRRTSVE
The experiment in a line: Immunoprecipitation/Western analysis of LRRK2 phosphorylation at Ser910, Ser935, Ser955, Ser973 in HEK293 T-REx GFP-LRRK2 G2019S cells. The data set is classed as cell-based. To be noted: 20 µM, 90 min, HEK293 GFP-LRRK2 G2019S, Figure 6. The method, then:
Immunoblot analysis: BacMam LRRK2-GFP transduced U-2 OS or SH-SY5Y cells (10^7 cells) were left untreated or treated with 3 µM LRRK2-IN-I for 90 min. For lysate preparation, the cells were washed once with ice-cold PBS and lysed by addition of ice-cold lysis buffer (20 mM Tris-HCl, pH 7.4, 1% NP-40, 5 mM EDTA, 5 mM NaF, 150 mM NaCl, and 1∶100 of protease and phosphatase inhibitor cocktails). The lysate was cleared of debris by centrifugation. Equal amount of total protein was loaded onto each lane for SDS-PAGE (3–8% Tris Acetate). The proteins were transferred onto nitrocellulose membrane using the iBLOT® dry blotting system (Life Technologies) according to manufacturer’s protocol. The membranes were blocked and incubated with a primary antibody against LRRK2 (Cell Signaling Technologies), followed by incubation with alkaline phosphatase-conjugated secondary antibody (WesternBreeze® chromogenic Kit, Life Technologies). The blot was developed by using the chromogenic BCIP/NBT substrate (WesternBreeze® chromogenic Kit, Life Technologies). […] Two days post induction, cells were treated for 90 minutes in the presence of 20 µM of compound or DMSO vehicle control. Cells were rapidly lysed in ice cold lysis buffer 50 mM Tris/HCl, pH 7.5, 1 mM EGTA, 1 mM EDTA, […] 1 mM sodium orthovanadate, 10 mM sodium beta-glycerolphosphate, 50 mM NaF, 5 mM sodium pyrophosphate, 0.27 M sucrose, 1 mM benzamidine and 2 mM phenylmethanesulphonylfluoride (PMSF) and one tablet each complete protease inhibitor and PhosSTOP phosphatase inhibitor (Roche) and was supplemented with 1% (v/v) Triton X-100. GFP-LRRK2 was immunoprecipitated with GFP nanotrap beads (ChromoTek). Immunecomplexes were washed twice with lysis buffer supplemented with 300 mM NaCl and once with Buffer A (50 mM Tris/HCl, pH 7.5, 50 mM NaCl, 0.1 mM EGTA and 0.1% (v/v) 2-mercaptoethanol, and 0.27 M sucrose).

The nature of data set [9]: Cytotoxicity assay (resazurin-based cell viability). As to conditions: human. For orientation: The colour change of resazurin is a common sign of viable cells or microbes.
[10] abbreviates: SH-SY5Y, G2019S, +/- SD, * = partial inhibition, read-out: IC50, TR-FRET cell-based assay for Ser935 phosphorylation of LRRK2.
Where [11] appears, read: SH-SY5Y, Tocriscreen Mini library screen, 20 µM, SH-SY5Y G2019S, relative to LRRK2-IN-1 control.
Where [12] appears, read: dose-response follow-up, SH-SY5Y G2019S.
[13] abbreviates: dose-response follow-up, SH-SY5Y G2019S, read-out: Cellular TR-FRET Assay IC50 +/-SD.

Where only a bound is given, the exact number is not on record here.

T1 sequence (Q5S007 whole entry): as the sequence (Q5S007 whole entry G2019S) above, with S2019G counted along it
T2 sequence (Q5S007 whole entry G2019S): as the sequence (Q5S007 whole entry G2019S) above

With `O=S(=O)(NCCNC/C=C/c1ccc(Br)cc1)c1cccc2cnccc12` [H-89], the “effect on the phosphorylation of Ser935 in the TR-FRET cellular assay” value in [1] is listed as “no effect”. Also, the IC50 on LRRK2 wild-type [2], at LRRK2 wild-type [3], on LRRK2 G2019S [4] (setting [10]) and at LRRK2 G2019S [5] was above 20 µM each time.

For `O=Nc1c(-c2c(O)[nH]c3ccccc23)[nH]c2ccccc12` [Indirubin-3-monoxime, Indirubin-3′-monoxime], the IC50 was above 10 µM at LRRK2 G2019S [6]; above 20 µM in “in vitro”; 3.78 µM at LRRK2 wild-type [2]; above 10 µM on LRRK2 wild-type [3]; 6.15 µM at LRRK2 G2019S [4] (setting [10]); 4.4 µM on LRRK2 G2019S [4] (setting [13]). Also, the figures for the IC50 at LRRK2 wild-type [7], at LRRK2 G2019S [8] and at LRRK2 G2019S [5] were 3.68 µM, 2.78 µM and 1.93 µM, respectively. The “effect on LRRK2 activity in vitro” value at LRRK2 G2019S [6] (result in words) is given as “did not repress LRRK2 activity in vitro”. In addition, the inhibition at 20 µM on LRRK2 G2019S [4] (setting [11]) was found to be 63.5%. For the same compound, the “Cellular TR-FRET Assay Max % Inhibition” value on LRRK2 G2019S [4] (setting [12]) amounted to 64%.

With `Oc1c2ccccc2c2c3c(cccc13)N=N2` [SP 600125], the IC50 is 0.22 µM on LRRK2 G2019S [6], above 20 µM in data set [9] and 1 µM at LRRK2 G2019S [4] (setting [13]). For the same compound, the “effect on phosphorylation of Ser910, Ser935, Ser955 and Ser973 (IP-Western)” value at GFP-LRRK2 G2019S is “inhibited phosphorylation of Ser910, Ser935, Ser955 and Ser973”. Further, the inhibition at 20 µM on LRRK2 G2019S [4] (setting [11]) is 88%. Also, the “%Inhibition Initial screen” value on LRRK2 G2019S [4] (Tocriscreen Mini library screen, 20 µM, SH-SY5Y G2019S, relative to LRRK2-IN-1 control) is given as 88.3%. Besides, on LRRK2 G2019S [4] (setting [12]), the “Cellular TR-FRET Assay Max % Inhibition” value was 103%.

As usually defined, the inhibition is the change of the read-out against control, counted positive when it falls.

The values are drawn from PMC3429506, “Screening for Novel LRRK2 Inhibitors Using a High-Throughput TR-FRET Cellular Assay for LRRK2 Ser935 Phosphorylation” (PLoS ONE, 2012).
